This passage reports DC50 and Dmax results from patent US20260116884A1, “PROTAC CHIMERIC COMPOUND, PREPARATION METHOD THEREFOR AND USE THEREOF” (HANGZHOU ZHONGMEIHUADONG PHARMACEUTICAL CO., LTD., priority 2022, published 2026).

Sequence of human HPK1 (Q92918 whole entry): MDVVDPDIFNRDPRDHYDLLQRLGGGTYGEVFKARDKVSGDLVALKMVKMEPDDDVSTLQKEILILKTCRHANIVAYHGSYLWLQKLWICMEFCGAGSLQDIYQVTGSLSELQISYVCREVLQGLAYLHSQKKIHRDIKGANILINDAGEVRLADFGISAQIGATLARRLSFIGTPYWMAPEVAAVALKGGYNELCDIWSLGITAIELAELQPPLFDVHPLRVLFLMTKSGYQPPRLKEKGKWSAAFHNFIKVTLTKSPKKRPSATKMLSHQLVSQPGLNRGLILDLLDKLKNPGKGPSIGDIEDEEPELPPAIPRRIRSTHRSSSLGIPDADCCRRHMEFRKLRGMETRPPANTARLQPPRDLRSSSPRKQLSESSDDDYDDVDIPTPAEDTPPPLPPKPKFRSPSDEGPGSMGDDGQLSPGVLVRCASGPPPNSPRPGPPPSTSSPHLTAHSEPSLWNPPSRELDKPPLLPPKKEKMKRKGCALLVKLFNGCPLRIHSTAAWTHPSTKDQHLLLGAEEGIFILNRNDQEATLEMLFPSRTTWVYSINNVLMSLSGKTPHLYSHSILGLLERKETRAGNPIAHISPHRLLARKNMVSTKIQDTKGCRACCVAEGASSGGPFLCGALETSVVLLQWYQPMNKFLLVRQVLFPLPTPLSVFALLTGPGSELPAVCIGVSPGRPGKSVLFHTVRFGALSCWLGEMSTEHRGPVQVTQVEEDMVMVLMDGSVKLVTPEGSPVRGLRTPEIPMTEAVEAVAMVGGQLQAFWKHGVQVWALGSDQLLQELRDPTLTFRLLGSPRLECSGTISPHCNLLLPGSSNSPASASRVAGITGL

The test has as its target human HPK1 (Homo sapiens, UniProt Q92918). Kind of test: HPK1 protein degradation assay (WB) in RAMOS cell line. To be noted: RAMOS cells, 16 h, Western blot. The class given is cell-based. Details: The RAMOS cell line was selected as the degradation cell line; endogenous in cells; host or cells: RAMOS. On the procedure:
Degradation of HPK1 proteins and DC50/Dmax were determined by the WB method in order to evaluate the in vitro degradative ability of the compound.
The RAMOS cell line was selected as the degradation cell line. Incubation Conditions: RMPI 1640 culture medium supplemented with 10% FBS, 37° C., 5% CO2.
• (1) Plating cells: in a 6 cm dish with 4 ml of the culture medium, cells plated at 2×10^6 cells/dish. • (2) Drug addition: the compound (stock solution concentration: 10 mM) was diluted with DMSO in a dilution plate, with a maximum starting concentration of 10 μM and 7 concentration gradient points (3-fold dilution). 4 μl of each diluted solution was taken, added to a dish, and incubated for 16 h. • (3) Cells were harvested, added with a lysis buffer, and centrifuged at 12000 rpm/min for 20 min. The supernatant was collected. After quantification using a BCA quantification kit, 5× loading buffer was added to denature for 10 min. • (4) 10 μg of denatured protein was added to the SDS-PAGE gel. After electrophoresis and membrane transfer, the plate was blocked with 5% BSA for 1 h, incubate with the primary antibody at 4° C. overnight. After washing off the primary antibody, the secondary antibody was added, incubated at room temperature for 1 h, and washed off.
Imaging: the membranes were scanned with a two-color fluorescence imaging system.
(In general: A western blot detects proteins with antibodies after separation by electrophoresis.)
In turn, `CCN1CCC(n2cc(-c3c[nH]c4ncc(-c5ccc(N6CCC(CN7CCN(C(=O)c8ccc(Cl)c(N9CCC(=O)NC9=O)c8)CC7)CC6)nc5)nc34)cn2)CC1` [Compound C084] returned a half-maximal degradation concentration (DC50) of 1.21 nM and a Dmax of 93%. The like results for `CCN1CCC(n2cc(-c3c[nH]c4ncc(-c5ccc(N6CCC(CC7CCCN(C(=O)c8ccc(Cl)c(N9CCC(=O)NC9=O)c8)CC7)CC6)nc5)nc34)cn2)CC1` (stereo not drawn) [Compound C085] were, in that order, 385 nM and 56.4%. In turn, `CCN1CCC(n2cc(-c3c[nH]c4ncc(-c5ccc(N6CCC(CC7CCN(C(=O)c8ccc(Cl)c(N9CCC(=O)NC9=O)c8)CC7)CC6)nc5)nc34)cn2)CC1` [Compound C092] showed a DC50 of 21.4 nM. `CCN1CCC(n2cc(-c3c[nH]c4ncc(-c5ccc(N6CCC(CC7CCN(C(=O)c8ccc(Cl)c(N9CCC(=O)NC9=O)c8)CC7C)CC6)cc5)nc34)cn2)CC1` (stereo not drawn) [Compound C115] gave a DC50 of 23.5 nM and a Dmax of 66.4%. Molecule `CCN1CCC(n2cc(-c3c[nH]c4ncc(-c5ccc(N6CCC(F)(CN7CCN(C(=O)c8ccc(Cl)c(N9CCC(=O)NC9=O)c8)CC7)CC6)cc5)nc34)cn2)CC1` [Compound C137] came in with a DC50 of 230 nM and a Dmax of 58.4%. For `Cn1cc(-c2c[nH]c3ncc(-c4ccc(N5CCC(CC6CCN(C(=O)c7ccc(Cl)c(N8CCC(=O)NC8=O)c7)CC6)CC5)cc4)nc23)cn1` [Compound C140] the same measures were 198 nM and 50.7%. `O=C1CCN(c2cc(C(=O)N3CCC(CC4CCN(c5ccc(-c6cnc7[nH]cc(-c8cnn(C(F)F)c8)c7n6)cn5)CC4)CC3)ccc2Cl)C(=O)N1` [Compound C167] registered a DC50 of 23.9 nM and a maximal degradation (Dmax) of 66.8%. For `O=C1CCN(c2cc(C(=O)N3CCC(CC4CCN(c5ccc(-c6cnc7[nH]cc(-c8cnn(CC9CC9)c8)c7n6)cn5)CC4)CC3)ccc2Cl)C(=O)N1` [Compound C177] the same measures were 632 nM and 51.6%.

Consider `CC(C)(C#N)n1cc(-c2c[nH]c3ncc(-c4ccc(N5CCC(CC6CCN(C(=O)c7ccc(Cl)c(N8CCC(=O)NC8=O)c7)CC6)CC5)nc4)nc23)cn1` [Compound C181], for which half-maximal degradation (DC50) was put at 214 nM and the Dmax was 64.4%. In turn, `O=C1CCN(c2cc(C(=O)N3CCC(CC4CCN(c5ccc(-c6cnc7[nH]cc(-c8cnn(CC(F)(F)F)c8)c7n6)cn5)CC4)CC3)ccc2Cl)C(=O)N1` [Compound C196] came in with a Dmax of 93.8%. In the case of `O=C1CCN(c2cc(C(=O)N3CCC(CC4CCN(c5ccc(-c6cnc7[nH]cc(-c8cn[nH]c8)c7n6)cn5)CC4)CC3)ccc2Cl)C(=O)N1` [Compound C198], it took 32.9 nM to reach half-maximal degradation (DC50) and the maximal degradation (Dmax) came to 91.8%. The like results for `O=C1CCN(c2cc(C(=O)N3CCC(CC4CCN(c5ccc(-c6cnc7[nH]cc(-c8cnn([C@@H]9CCOC9)c8)c7n6)cn5)CC4)CC3)ccc2Cl)C(=O)N1` [Compound C199] were, in that order, 83 nM and 83.8%. The molecule `Cn1cc(-c2c[nH]c3ncc(-c4cnc(N5CCC(CC6CCN(C(=O)c7ccc(Cl)c(N8CCC(=O)NC8=O)c7)CC6)CC5)nc4)nc23)cn1` [Compound C203] gave a DC50 of 5.99 nM and a Dmax of 91.7%. The like results for `Cc1ccc(C(=O)N2CCC(CC3CCN(c4ncc(-c5cnc6[nH]cc(-c7cnn(C)c7)c6n5)cn4)CC3)CC2)cc1N1CCC(=O)NC1=O` [Compound C204] were, in that order, 58 nM and 85.4%. `CCc1c[nH]c2ncc(-c3ccc(N4CCC(CC5CCN(C(=O)c6ccc(Cl)c(N7CCC(=O)NC7=O)c6)CC5)CC4)nc3)nc12` [Compound C205] came in with a 50% degradation concentration (DC50) of 89.9 nM and a maximal degradation (Dmax) of 83%. In turn, `Cn1cc(-c2c[nH]c3ncc(-c4ccc(N5CCC(CC6CCN(C(=O)c7ccc(Cl)c(C8CCC(=O)NC8=O)c7)CC6)CC5)nc4)nc23)cn1` (stereo not drawn) [Compound C206] yielded a DC50 of 190 nM and a Dmax of 73%.

What is called DC50 is the concentration giving 50% degradation. A high value points to a less potent degrader. The term Dmax denotes the largest share of the target that was removed.
